Data taken from ChEMBL document CHEMBL4627407, “Identification of a Potent Oridonin Analogue for Treatment of Triple-Negative Breast Cancer” (J Med Chem, 2020).

How the values were obtained:
Format in all cases: functional, cell-based
DU-4475 = test: Antiproliferative activity against human DU4475 cells after 72 hrs by MTT assay; details: DU-4475, 72 h
HCC1806 = test: Antiproliferative activity against human HCC1806 cells after 72 hrs by MTT assay; details: HCC1806, 72 h
MDA-MB-468 = test: Antiproliferative activity against human MDA-MB-468 cells after 72 hrs by MTT assay; details: MDA-MB-468, 72 h
MDA-MB-231 = test: Antiproliferative activity against human MDA-MB-231 cells after 72 hrs by MTT assay; details: MDA-MB-231, 72 h

Row | Compound | IC50 (HCC1806) | IC50 (MDA-MB-468) | IC50 (MDA-MB-231) | IC50 (DU-4475)
1 | C=C1C(=O)[C@@]23C(=O)[C@@H]4OC[C@]5(C=CCC(C)(C)[C@@H]45)[C@@H]2CC[C@@H]1[C@H]3OC(=O)C1CC1 | 1730 nM | 990 nM | 760 nM | 1060 nM
2 | C=C1C(=O)[C@@]23C(=O)[C@@H](OC(C)=O)[C@@H]4C(C)(C)CC=C[C@@]4(COC(C)=O)[C@@H]2CC[C@@H]1[C@H]3OC(C)=O | 2420 nM | 1660 nM | 3710 nM | 1900 nM
3 | C=C1C(=O)[C@@]23C(=O)[C@@H]4OC[C@]5(C=CCC(C)(C)[C@@H]45)[C@@H]2CC[C@@H]1[C@H]3OC(=O)c1ccc2ncccc2c1 | 2670 nM | 2560 nM | 2110 nM | 2590 nM
4 | C=C1C(=O)[C@]23[C@H](O)[C@H]1CC[C@H]2[C@]12CCCC(C)(C)[C@H]1C[C@@]3(O)OC2 | 2920 nM | 2450 nM | 3440 nM | 1880 nM
5 | C=C1C(=O)[C@@]23C(=O)[C@@H]4OC[C@]5(C=CCC(C)(C)[C@@H]45)[C@@H]2CC[C@@H]1[C@H]3OC(=O)/C=C/c1ccnc(Cl)c1 | 2090 nM | 1600 nM | 1350 nM | 1710 nM
6 | C=C1C(=O)[C@@]23C(=O)[C@@H]4OC[C@]5(C=CCC(C)(C)[C@@H]45)[C@@H]2CC[C@@H]1[C@H]3OC(=O)/C=C/c1ccnc(OC)c1 | 1930 nM | 1750 nM | 1420 nM | 1630 nM
7 | C=C1C(=O)[C@@]23C(=O)C[C@@H]4C(C)(C)CCC[C@@]4(COC(C)=O)[C@@H]2CC[C@@H]1[C@H]3OC(C)=O | 2870 nM | 2490 nM | 3660 nM | 1810 nM
8 | C=C1C(=O)[C@@]23C(=O)[C@@H]4OC[C@]5(C=CCC(C)(C)[C@@H]45)[C@@H]2CC[C@@H]1[C@H]3OC(=O)/C=C/c1ccc2c(c1)OCO2 | 3020 nM | 2650 nM | 2230 nM | 2480 nM
9 | C=C1C(=O)[C@@]23C(=O)[C@@H]4OC[C@]5(C=CCC(C)(C)[C@@H]45)[C@@H]2CC[C@@H]1[C@H]3OC(=O)/C=C/c1ccc2ccccc2c1 | 1780 nM | 2250 nM | 1470 nM | 2000 nM
10 | C=C1C(=O)[C@@]23C(=O)[C@@H]4OC[C@]5(C=CCC(C)(C)[C@@H]45)[C@@H]2CC[C@@H]1[C@H]3OC(=O)c1ccc(OC)cc1 | 1710 nM | 2020 nM | 1300 nM | 1890 nM
11 | C=C1C(=O)[C@@]23C(=O)[C@@H]4OC[C@]5(C=CCC(C)(C)[C@@H]45)[C@@H]2CC[C@@H]1[C@H]3OC(=O)C=C(C)C | 3060 nM | 2810 nM | 2090 nM | 2720 nM
12 | C=C1C(=O)[C@@]23C(=O)[C@@H]4OC[C@@]5([C@H]4C(C)(C)CC[C@@H]5O)[C@@H]2CC[C@@H]1[C@H]3O | 2420 nM | 2400 nM | 1680 nM | 1370 nM
13 | C=C1C(=O)[C@@]23C(=O)[C@@H]4OC[C@]5(C=CCC(C)(C)[C@@H]45)[C@@H]2CC[C@@H]1[C@H]3OC(=O)C1CCCCC1 | 2580 nM | 2400 nM | 1600 nM | 2140 nM
14 | C=C1C(=O)[C@@]23C(=O)[C@@H]4OC[C@]5(CCCC(C)(C)[C@@H]45)[C@@H]2CC[C@@H]1[C@H]3O | 2050 nM | 2290 nM | 1740 nM | 1560 nM
15 | C=C1C(=O)[C@@]23C(=O)[C@@H]4OC[C@]5(C=CCC(C)(C)[C@@H]45)[C@@H]2CC[C@@H]1[C@H]3OC(=O)/C=C/c1ccc(Cl)cc1 | 1970 nM | 2340 nM | 1620 nM | 2150 nM
16 | C=C1C(=O)[C@@]23C(=O)[C@@H]4OC[C@]5(C=CCC(C)(C)[C@@H]45)[C@@H]2CC[C@@H]1[C@H]3OC(=O)c1ccc(F)cc1 | 1650 nM | 2050 nM | 1410 nM | 2050 nM
17 | C=C1C(=O)[C@@]23C(=O)[C@@H]4OC[C@]5(C=CCC(C)(C)[C@@H]45)[C@@H]2CC[C@@H]1[C@H]3OC(=O)/C=C/c1ccsc1 | 2740 nM | 3070 nM | 2180 nM | 2820 nM
18 | C=C1C(=O)[C@@]23C(=O)[C@@H]4OC[C@]5(C=CCC(C)(C)[C@@H]45)[C@@H]2CC[C@@H]1[C@H]3OC(=O)c1cccnc1 | 2730 nM | 1370 nM | 1070 nM | 2620 nM
19 | C=C1C(=O)[C@@]23C(=O)[C@@H]4OC[C@]5(C=CCC(C)(C)[C@@H]45)[C@@H]2CC[C@@H]1[C@H]3OC(=O)/C=C/c1ccc2occc2c1 | 2050 nM | 2440 nM | 2160 nM | 2400 nM
20 | C=C1C(=O)[C@@]23C(=O)[C@@H]4OC[C@]5(C=CCC(C)(C)[C@@H]45)[C@@H]2CC[C@@H]1[C@H]3OC(=O)/C=C(\C)c1ccccc1 | 1850 nM | 1990 nM | 1480 nM | 2440 nM
21 | C=C1C(=O)[C@@]23C(=O)[C@@H]4OC[C@]5(C=CCC(C)(C)[C@@H]45)[C@@H]2CC[C@@H]1[C@H]3OC(=O)/C=C/c1ccc(OC)cc1 | 1960 nM | 2290 nM | 1310 nM | 2320 nM
22 | C=C1C(=O)[C@@]23C(=O)[C@@H]4OC[C@]5(C=CCC(C)(C)[C@@H]45)[C@@H]2CC[C@@H]1[C@H]3OC(=O)c1ccccc1 | 7120 nM | 8960 nM | 7450 nM | 8500 nM

The next lines start with results.

Row | IC50 (HCC1806) | IC50 (MDA-MB-468) | IC50 (MDA-MB-231) | Compound | IC50 (DU-4475)
23 | 600 nM | 1080 nM | 1450 nM | C=C1C(=O)[C@@]23C(=O)[C@@H]4OC[C@]5(C=CCC(C)(C)[C@@H]45)[C@@H]2CC[C@@H]1[C@H]3OC(=O)/C=C/c1ccccn1 | 470 nM
24 | 1390 nM | 1320 nM | 1080 nM | C=C1C(=O)[C@@]23C(=O)[C@@H]4OC[C@]5(C=CCC(C)(C)[C@@H]45)[C@@H]2CC[C@@H]1[C@H]3OC(=O)c1ccncc1 | 1420 nM
25 | 1170 nM | 1380 nM | 1130 nM | C=C1C(=O)[C@@]23C(=O)[C@@H]4OC[C@]5(C=CCC(C)(C)[C@@H]45)[C@@H]2CC[C@@H]1[C@H]3OC(=O)c1ccc(S(C)(=O)=O)cc1 | 1280 nM
26 | 1140 nM | 1040 nM | 850 nM | C=C1C(=O)[C@@]23C(=O)[C@@H]4OC[C@]5(C=CCC(C)(C)[C@@H]45)[C@@H]2CC[C@@H]1[C@H]3OC(=O)/C=C/c1ccncc1F | 1100 nM
27 | 1550 nM | 1630 nM | 1370 nM | C=C1C(=O)[C@@]23C(=O)[C@@H]4OC[C@]5(C=CCC(C)(C)[C@@H]45)[C@@H]2CC[C@@H]1[C@H]3OC(=O)/C=C/c1ccccc1 | 1640 nM
28 | 310 nM | 530 nM | 680 nM | C=C1C(=O)[C@@]23C(=O)[C@@H]4OC[C@]5(C=CCC(C)(C)[C@@H]45)[C@@H]2CC[C@@H]1[C@H]3OC(=O)/C=C/c1cccnc1 | 340 nM
29 | 1000 nM | 790 nM | 960 nM | C=C1C(=O)[C@@]23C(=O)[C@@H]4OC[C@]5(C=CCC(C)(C)[C@@H]45)[C@@H]2CC[C@@H]1[C@H]3OC(C)=O | 750 nM
30 | 820 nM | 850 nM | 640 nM | C=C1C(=O)[C@@]23C(=O)[C@@H]4OC[C@]5(C=CCC(C)(C)[C@@H]45)[C@@H]2CC[C@@H]1[C@H]3OC(=O)/C=C/c1ccncc1Cl | 860 nM
31 | 970 nM | 990 nM | 1300 nM | C=C1C(=O)[C@@]23C(=O)[C@@H]4OC[C@]5(C=CCC(C)(C)[C@@H]45)[C@@H]2CC[C@@H]1[C@H]3O | 920 nM
32 | 740 nM | 850 nM | 640 nM | C=C1C(=O)[C@@]23C(=O)[C@@H]4OC[C@]5(C=CCC(C)(C)[C@@H]45)[C@@H]2CC[C@@H]1[C@H]3OC(=O)c1ccncn1 | 850 nM
33 | 730 nM | 760 nM | 530 nM | C=C1C(=O)[C@@]23C(=O)[C@@H]4OC[C@]5(C=CCC(C)(C)[C@@H]45)[C@@H]2CC[C@@H]1[C@H]3OC(=O)c1cnccn1 | 710 nM
34 | 770 nM | 840 nM | 1080 nM | C=C1C(=O)[C@@]23C(=O)[C@@H]4OC[C@]5(C=CCC(C)(C)[C@@H]45)[C@@H]2CC[C@@H]1[C@H]3OC(=O)/C=C/c1cncnc1 | 620 nM
35 | 1630 nM | 1600 nM | 1180 nM | C=C1C(=O)[C@@]23C(=O)[C@@H]4OC[C@]5(C=CCC(C)(C)[C@@H]45)[C@@H]2CC[C@@H]1[C@H]3OC(=O)/C=C/c1ccc(F)cc1 | 1750 nM
36 | 710 nM | 1470 nM | 1120 nM | C=C1C(=O)[C@@]23C(=O)[C@@H]4OC[C@]5(C=CCC(C)(C)[C@@H]45)[C@@H]2CC[C@@H]1[C@H]3OC(=O)c1ccccn1 | 780 nM
37 | 1620 nM | 1940 nM | 1420 nM | C=C1C(=O)[C@@]23C(=O)[C@@H]4OC[C@]5(C=CCC(C)(C)[C@@H]45)[C@@H]2CC[C@@H]1[C@H]3OC(=O)CCc1ccccc1 | 1740 nM
38 | 1120 nM | 1030 nM | 700 nM | C=C1C(=O)[C@@]23C(=O)[C@@H]4OC[C@]5(C=CCC(C)(C)[C@@H]45)[C@@H]2CC[C@@H]1[C@H]3OC(=O)/C=C/c1ccnc(F)c1 | 940 nM
